Starred links: 1 amine or outer side, 2 acyl side, 3 side chain; linkers in the order of their positions; H or OH if unused. Non-standard residues stand in square brackets, D forms with d. Residues, ends and D or L forms follow the SMILES beside them. *: point of attachment. X9 = CN=C(NCCC[C@H](N[*:1])C(=O)[*:2])N(C)C; X5 = O=C([C@H](CCCCNC1CCCC1)N[*:1])[*:2]; dPhe(4-Cl) = N[C@H](Cc1ccc(Cl)cc1)C(=O)O; Pyrimidin2yl(4,6-Me2) = Cc1cc(C)nc(*)n1; d2Nal = N[C@H](Cc1ccc2ccccc2c1)C(=O)O; Lys(iPr) = CC(C)NCCCC[C@H](N)C(=O)O; Orn(iPr) = CC(C)NCCC[C@H](N)C(=O)O; d3Pal = N[C@H](Cc1cccnc1)C(=O)O; Isonicotinoyl = O=C(c1ccncc1)*; Nicotinoyl = O=C(c1cccnc1)*; Picolinoyl = O=C(c1ccccn1)*; Orn = NCCC[C@H](N)C(=O)O; Bz = O=C(c1ccccc1)*
Each compound was assayed on anaesthesized rats (assay: wheal test, intradermal injection). Conditions: Table I; 10 ug peptide intradermally.
Type: in vivo, rat
Method: The antiovulatory activity, AOA, in rats was determined as described by Humphries et al. (12). Antiovulation assays were performed by counting, on estrus, the number of ova shed by 4-day cycling rats after a single sc injection of the LH-RH analogue in corn oil was administered between 12 and 12:30 p.m. on […]. The control rats received 0.3 mL of the vehicle. The wheal test was performed by intradermally injecting 10 ug of peptide in 100 ul of saline into anaesthesized rats, measuring the ideally circular wheal response and calculating the area. The in vitro histamine release test was done as described by Karten et al. (4). A suspension of rat mast cells was added to increasing concentrations of peptide and the mixture was incubated for a few minutes followed by centrifugation to collect the histamine in the supernatant. A PIPES (piperazine-N,N'-bis[2-ethanesulfonic acid]) medium buffered at pH 7.4 containing NaCl 119 mM, KCl 5 mM, PIPES 25 mM, NaOH 40 mM, glucose 5.6 mM, CaCl2 1 mM, and 0.1% bovine serum albumin was used. This was designated as PIPES AC. Peptides were dissolved in double distilled H2 O at a concentration of 2 mg/ml and stored at -20° C. They were thawed just prior to testing, diluted in PIPES AC and prewarmed for five minutes at 37° C. Peptides studied were stable to heating at 56° C. for two hours, and to freezing and thawing.

Compared with `CC(=O)N[C@H](Cc1ccc2ccccc2c1)C(=O)N[C@H](Cc1ccc(Cl)cc1)C(=O)N[C@H](Cc1cccnc1)C(=O)N[C@@H](CO)C(=O)N[C@@H](Cc1ccc(O)cc1)C(=O)N[C@H](CCCCNC(=O)c1cccnc1)C(=O)N[C@@H](CC(C)C)C(=O)N[C@@H](CCCCN)C(=O)N1CCC[C@H]1C(=O)N[C@H](C)C(N)=O` [compound 24825] (Ac-[d2Nal][dPhe(4-Cl)][d3Pal]SY[dK](Nicotinoyl)LKP[dA]-NH2), `CC[C@H](C)[C@H](NC(=O)[C@H](CO)NC(=O)[C@@H](Cc1cccnc1)NC(=O)[C@@H](Cc1ccc(Cl)cc1)NC(=O)[C@@H](Cc1ccc2ccccc2c1)NC(C)=O)C(=O)N[C@H](CCCCNC(=O)c1cccnc1)C(=O)N[C@@H](CC(C)C)C(=O)N[C@@H](CCCCNC(C)C)C(=O)N1CCC[C@H]1C(=O)N[C@H](C)C(N)=O` [compound 25144] (Ac-[d2Nal][dPhe(4-Cl)][d3Pal]SI[dK](Nicotinoyl)L[Lys(iPr)]P[dA]-NH2) is higher in Wheal: 119.5 ± 3.2 mm^2 /10 for the first, 147.7 mm^2 /10 for the second.

`CN=C(NCCC[C@H](NC(=O)[C@H](CO)NC(=O)[C@@H](Cc1cccnc1)NC(=O)[C@@H](Cc1ccc(Cl)cc1)NC(=O)[C@@H](Cc1ccc2ccccc2c1)NC(C)=O)C(=O)N[C@H](CCCCNC(=O)c1cccnc1)C(=O)N[C@@H](CC(C)C)C(=O)N[C@@H](CCCCNC(C)C)C(=O)N1CCC[C@H]1C(=O)N[C@H](C)C(N)=O)N(C)C` [compound 24931] (Ac-[d2Nal][dPhe(4-Cl)][d3Pal]S[X9][dK](Nicotinoyl)L[Lys(iPr)]P[dA]-NH2) and `CN=C(NCCC[C@H](NC(=O)[C@H](CC(C)C)NC(=O)[C@@H](CCCCNC(=O)c1cccnc1)NC(=O)[C@H](CCCCNC(=O)c1cccnc1)NC(=O)[C@H](CO)NC(=O)[C@@H](Cc1cccnc1)NC(=O)[C@@H](Cc1ccc(Cl)cc1)NC(=O)[C@@H](Cc1ccc2ccccc2c1)NC(C)=O)C(=O)N1CCC[C@H]1C(=O)N[C@H](C)C(N)=O)N(C)C` [compound 24987] (Ac-[d2Nal][dPhe(4-Cl)][d3Pal]SK(Nicotinoyl)[dK](Nicotinoyl)L[X9]P[dA]-NH2) are within error of each other in Wheal: 140 ± 7.0 mm^2 /10 for the first, 150.9 ± 14.0 mm^2 /10 for the second.

Compared with `CC(=O)N[C@H](Cc1ccc2ccccc2c1)C(=O)N[C@H](Cc1ccc(Cl)cc1)C(=O)N[C@H](Cc1cccnc1)C(=O)N[C@@H](CO)C(=O)N[C@@H](CCCCNC(=O)c1cccnc1)C(=O)N[C@H](CCCCNC(=O)c1cccnc1)C(=O)N[C@@H](CC(C)C)C(=O)N[C@@H](CCCNC(C)C)C(=O)N1CCC[C@H]1C(=O)N[C@H](C)C(N)=O` [compound 24933] (Ac-[d2Nal][dPhe(4-Cl)][d3Pal]SK(Nicotinoyl)[dK](Nicotinoyl)L[Orn(iPr)]P[dA]-NH2), `CC(=O)N[C@H](Cc1ccc2ccccc2c1)C(=O)N[C@H](Cc1ccc(Cl)cc1)C(=O)N[C@H](Cc1cccnc1)C(=O)N[C@@H](CO)C(=O)N[C@@H](CCCCNC(=O)c1cccnc1)C(=O)N[C@@H](CCCCNC(=O)c1cccnc1)C(=O)N[C@@H](CC(C)C)C(=O)N[C@@H](CCCCNC(C)C)C(=O)N1CCC[C@H]1C(=O)N[C@H](C)C(N)=O` [compound 24934] (Ac-[d2Nal][dPhe(4-Cl)][d3Pal]SK(Nicotinoyl)K(Nicotinoyl)L[Lys(iPr)]P[dA]-NH2) is lower in Wheal: 136.0 mm^2 /10 for the first, 123 ± 5.9 mm^2 /10 for the second.

First: CC(=O)N[C@H](Cc1ccc2ccccc2c1)C(=O)N[C@H](Cc1ccc(Cl)cc1)C(=O)N[C@H](Cc1cccnc1)C(=O)N[C@@H](CO)C(=O)N[C@@H](CCCCNC(=O)c1cccnc1)C(=O)N[C@H](CCCCNC(=O)c1cccnc1)C(=O)N[C@@H](CC(C)C)C(=O)N[C@@H](CCCCNC1CCCC1)C(=O)N1CCC[C@H]1C(=O)N[C@H](C)C(N)=O [compound 25078] (Ac-[d2Nal][dPhe(4-Cl)][d3Pal]SK(Nicotinoyl)[dK](Nicotinoyl)L[X5]P[dA]-NH2)
Second: CC(=O)N[C@H](Cc1ccc2ccccc2c1)C(=O)N[C@H](Cc1ccc(Cl)cc1)C(=O)N[C@H](Cc1cccnc1)C(=O)N[C@@H](CO)C(=O)N[C@@H](CCCNC(=O)c1cccnc1)C(=O)N[C@H](CCCCNC(=O)c1cccnc1)C(=O)N[C@@H](CC(C)C)C(=O)N[C@@H](CCCNC(C)C)C(=O)N1CCC[C@H]1C(=O)N[C@H](C)C(N)=O [compound 25333] (Ac-[d2Nal][dPhe(4-Cl)][d3Pal]S[Orn](Nicotinoyl)[dK](Nicotinoyl)L[Orn(iPr)]P[dA]-NH2)
The Wheal of the first is higher: 147.0 mm^2 /10 for the first, 113.6 mm^2 /10 for the second.

Going from `CC(=O)N[C@H](Cc1ccc2ccccc2c1)C(=O)N[C@H](Cc1ccc(Cl)cc1)C(=O)N[C@H](Cc1cccnc1)C(=O)N[C@@H](CO)C(=O)N[C@@H](CCCCNC(=O)c1cccnc1)C(=O)N[C@H](CCCCNC(=O)c1cccnc1)C(=O)N[C@@H](CC(C)C)C(=O)N[C@@H](CCCNc1nc(C)cc(C)n1)C(=O)N1CCC[C@H]1C(=O)N[C@H](C)C(N)=O` [compound 25143] (Ac-[d2Nal][dPhe(4-Cl)][d3Pal]SK(Nicotinoyl)[dK](Nicotinoyl)L[Orn](Pyrimidin2yl(4,6-Me2))P[dA]-NH2) to `CC(=O)N[C@H](Cc1ccc2ccccc2c1)C(=O)N[C@H](Cc1ccc(Cl)cc1)C(=O)N[C@H](Cc1cccnc1)C(=O)N[C@@H](CO)C(=O)N[C@@H](CCCCNC(=O)c1cccnc1)C(=O)N[C@H](CCCCNC(=O)c1ccccc1)C(=O)N[C@@H](CC(C)C)C(=O)N[C@@H](CCCCNC(C)C)C(=O)N1CCC[C@H]1C(=O)N[C@H](C)C(N)=O` [compound 25332] (Ac-[d2Nal][dPhe(4-Cl)][d3Pal]SK(Nicotinoyl)[dK](Bz)L[Lys(iPr)]P[dA]-NH2), the Wheal rises from 113.6 mm^2 /10 to 119.6 mm^2 /10.

Compared with `CC[C@H](C)[C@H](NC(=O)[C@H](CO)NC(=O)[C@@H](Cc1cccnc1)NC(=O)[C@@H](Cc1ccc(Cl)cc1)NC(=O)[C@@H](Cc1ccc2ccccc2c1)NC(C)=O)C(=O)N[C@H](CCCCNC(=O)c1cccnc1)C(=O)N[C@@H](CC(C)C)C(=O)N[C@@H](CCCNC(C)C)C(=O)N1CCC[C@H]1C(=O)N[C@H](C)C(N)=O` [compound 25145] (Ac-[d2Nal][dPhe(4-Cl)][d3Pal]SI[dK](Nicotinoyl)L[Orn(iPr)]P[dA]-NH2), `CC(=O)N[C@H](Cc1ccc2ccccc2c1)C(=O)N[C@H](Cc1ccc(Cl)cc1)C(=O)N[C@H](Cc1cccnc1)C(=O)N[C@@H](CO)C(=O)N[C@@H](CCCCNC(=O)c1ccncc1)C(=O)N[C@H](CCCCNC(=O)c1ccncc1)C(=O)N[C@@H](CC(C)C)C(=O)N[C@@H](CCCCNC(C)C)C(=O)N1CCC[C@H]1C(=O)N[C@H](C)C(N)=O` [compound 25146] (Ac-[d2Nal][dPhe(4-Cl)][d3Pal]SK(Isonicotinoyl)[dK](Isonicotinoyl)L[Lys(iPr)]P[dA]-NH2) is higher in Wheal: 116.5 mm^2 /10 for the first, 140.3 mm^2 /10 for the second.

`CC(=O)N[C@H](Cc1ccc2ccccc2c1)C(=O)N[C@H](Cc1ccc(Cl)cc1)C(=O)N[C@H](Cc1cccnc1)C(=O)N[C@@H](CO)C(=O)N[C@@H](CCCCNC(=O)c1ccccn1)C(=O)N[C@H](CCCCNC(=O)c1ccccn1)C(=O)N[C@@H](CC(C)C)C(=O)N[C@@H](CCCCNC(C)C)C(=O)N1CCC[C@H]1C(=O)N[C@H](C)C(N)=O` [compound 25147] (Ac-[d2Nal][dPhe(4-Cl)][d3Pal]SK(Picolinoyl)[dK](Picolinoyl)L[Lys(iPr)]P[dA]-NH2) gave a Wheal of 123.0 mm^2 /10.
